Measured values published in patent publication US12061143B2, “Methods for rapid determinations of antibiotic susceptibility phenotypes” (priority 2018, dated 2024).
≈ marks a conversion by molar mass, not a printed value. Like-named read-outs stand apart in the source and are kept apart here.

Columns and labels:
Type in all cases: cell-based
A. nosocomialis M2 = experiment: MIC by broth microdilution AST; settings: for MIC: microdilution from pure culture; for MIC (S/I/R): class according to 2016 CLSI handbook
Protocol: (§1) Varied counts of bacteria were mixed with human blood and diluted 1:9 (v/v) with bacterial growth medium to desired bacterial concentrations (<10 CFU/mL final solution) and plated to independently confirm CFU/mL blood. Saponin was immediately added and the samples shaken for 15 minutes to achieve selective blood cell lysis. After hemolysis, bacteria were spun down and washed with PBS. The pellets were resuspended in bacterial growth medium and incubated at 37° C. for 2 hours, followed by another 3-hour incubation with antibiotics at various fractions of the minimum inhibition concentration (MIC, as independently determined by microdilution from the pure starting culture, Table 1) for sensitive strains or at the CLSI MIC resistant breakpoints^(12) for the highly resistant strains. Changes in scattered light signals largely resulting from bacterial growth inhibition were monitored by flow cytometry, and the difference in the 2-D scatter histograms with and without antibiotic treatment was quantified with PB-sQF statistics.^(1) Using PB-sQF, distance was calculated for each antibiotic concentration relative to its own no-antibiotic control and expressed as “fold distance” relative to the 99% confidence limit distance between the no-antibiotic control and the sensitive breakpoint. This allowed comparison of fold distances among all samples as each is individually paired to its own control, as is each replicate.
(§2) All clinical isolates (E. coli strains Mu14S and Mu890, K. pneumoniae strains Mu670 and Mu55, A. nosocomialis strains M2) were obtained from the Georgia Emerging Infection Program (GEIP). The MIC of each isolate was determined by a clinical microbiology laboratory using post blood culture automated AST and confirmed using broth microdilution in our laboratory. The MICs of each strain were measured to be as follows. For A. nosocomialis strain M2, 1 μg/mL tetracycline, 2 μg/mL gentamicin, and >1024 μg/mL ampicillin. For E. coli strain Mu890, 1 μg/mL tetracycline, 8 μg/mL gentamicin, and >1024 μg/mL ampicillin. For E. coli strain Mu14S, >64 μg/mL tetracycline, 8 μg/mL gentamicin, and >1024 μg/mL ampicillin. For K. pneumoniae strain Mu55, >64 μg/mL tetracycline, 1 μg/mL gentamicin, and >1024 μg/mL ampicillin. For K. pneumoniae strain Mu670, 2 μg/mL tetracycline, 4 μg/mL gentamicin, and >1024 μg/mL ampicillin.

E. coli Mu14S = experiment: MIC by broth microdilution AST; settings: for MIC: microdilution from pure culture; for MIC (S/I/R): class according to 2016 CLSI handbook
Protocol: as §1, §2

E. coli Mu890 = experiment: MIC by broth microdilution AST; settings: for MIC (S/I/R): class according to 2016 CLSI handbook; for MIC: microdilution from pure culture
Protocol: as §1, §2

K. pneumoniae Mu55 = experiment: MIC by broth microdilution AST; settings: for MIC: microdilution from pure culture; for MIC (S/I/R): class according to 2016 CLSI handbook
Protocol: as §1, §2

K. pneumoniae Mu670 = experiment: MIC by broth microdilution AST; settings: for MIC: microdilution from pure culture; for MIC (S/I/R): class according to 2016 CLSI handbook
Protocol: as §1, §2

E. coli strain Mu14S = experiment: FAST flow cytometry AST with PB-sQF, bacteria recovered from 10% human blood; settings: Mu14S treated at each resistant breakpoint (tetracycline 16 μg/mL)
Protocol: as §1
(§3) To simulate a blood specimen from a patient with bacteremia, the isolates were grown, diluted to the desired CFU/mL in blood (ZenBio, Research Triangle Park, NC) and saponin was added to achieve the final diluted sample. Initial bacterial cultures were prepared using Luria-Bertani (LB) broth for (E. coli) or cation-adjusted Mueller-Hinton broth (CAMHB). The fresh bacterial cultures started from ˜0.05 optical density (OD) by inoculating a 6-mL fresh growth medium with overnight culture were grown in an incubator shaker (MaxQ 4000, Thermal Fisher Scientific, Waltham, MA) at 37° C. and 225 rpm. After the culture reached mid-log phase, bacteria were collected and diluted into ˜10 CFU/mL through serial 10-fold dilutions. Bacterial densities were determined by plating onto LB plates. The final 10-fold dilution was performed by adding 500 μL of 100 CFU/mL into 4500 μL of 10% human blood in medium.
(§4) A 2.5% (w/v) of saponin solution was prepared, sonicated (Branson 2510, Emerson, St. Louis, MO) for 20 minutes and spun down with a clinical centrifuge (Centrific Model 228, Fisher Scientific, Waltham, MA) for 4 minutes. The supernatant cleared of particulates was collected. 500 μL of 2.5% saponin was then added to the 5 mL of 10% human blood sample with ˜10 CFU/mL, described above and the mixtures were shaken at 300 rpm for 15 minutes at 37° C. After the saponin treatment, the bacteria were pelleted and washed with 2 mL of phosphate buffered saline (PBS) (Life Technologies, Carlsbad, CA) using a clinical centrifuge for 2 minutes. Bacterial growth medium (2.5 mL) was then added to the tube and incubated for 2 hours at 37° C. and 225 rpm.
(§5) After the 2-hour incubation, 500-μL aliquots of the suspension were added to each of 4 wells in a 12-well microtiter plate that contained 500 μL of growth medium with or without antibiotic at 2-fold of specified concentrations. The plate was then incubated at 37° C. for 3 hours. Bacteria were collected by centrifugation (Centrifuge 5417R, Eppendorf) and resuspended in 200 μL of PBS for flow cytometry detection. To ensure each clinical isolate was tested at its MIC values of the tested antibiotics, the initial bacterial cultures at the 1000 CFU/mL dilution were also tested for each experiment (FIGS. 4A-4F, 5A-5F, 7A-7F, 8A-8F, and 9A-9F), confirming that the antibiotic concentrations indeed inhibited bacterial growth.
(§6) Cytometric data were collected by BD LSRFortessa flow cytometer (Becton Dickinson, Franklin Lake, NY) equipped with a 100 mW, 488 nm laser for the scatter signal. […]

E. coli strain Mu890 = experiment: as above; settings: Mu890 treated with 32 μg/mL (Enterobacteriaceae resistance breakpoint), vs no-antibiotic control
Protocol: as §1, §3, §4, §5, §6

[1] = system: A. nosocomialis strain M2; experiment: as above; settings: M2 spiked in 10% human blood, assayed within 8 hrs of simulated blood draw
Protocol: Varied counts of bacteria were mixed with human blood and diluted 1:9 (v/v) with bacterial growth medium to desired bacterial concentrations (<10 CFU/mL final solution) and plated to independently confirm CFU/mL blood. Saponin was immediately added and the samples shaken for 15 minutes to achieve selective blood cell lysis. After hemolysis, bacteria were spun down and washed with PBS. […] This allowed comparison of fold distances among all samples as each is individually paired to its own control, as is each replicate.
To simulate a blood specimen from a patient with bacteremia, the isolates were grown, diluted to the desired CFU/mL in blood (ZenBio, Research Triangle Park, NC) and saponin was added to achieve the final diluted sample. Initial bacterial cultures were prepared using Luria-Bertani (LB) broth for (E. coli) or cation-adjusted Mueller-Hinton broth (CAMHB). The fresh bacterial cultures started from ˜0.05 optical density (OD) by inoculating a 6-mL fresh growth medium with overnight culture were grown in an incubator shaker (MaxQ 4000, Thermal Fisher Scientific, Waltham, MA) at 37° C. and 225 rpm. […] Bacterial densities were determined by plating onto LB plates. […]
Cytometric data were collected by BD LSRFortessa flow cytometer (Becton Dickinson, Franklin Lake, NY) equipped with a 100 mW, 488 nm laser for the scatter signal. […] Data were recorded with FACSDiVa provided by BD. […]

[2] = system: 10% human blood samples without bacteria inoculation; experiment: Antibiotic-treated 10% human blood only control (no bacteria), flow cytometry; settings: 10% human blood without bacteria, around the resistance breakpoints of Enterobacteriaceae
Protocol: FIGS. 6A-6D. Antibiotic-treated 10% human blood only results. Cytometric data with (FIG. 6A) Ampicillin (FIG. 6B) Tetracycline (FIG. 6C) Gentamicin. The greyscale plots are the no-antibiotic controls and the black contour plots are the antibiotic-treated data with the antibiotic concentration indicated at each plot. (FIG. 6D) PB-sQF results for FIGS. 6A-6C). […] For each antibiotic, the resistant breakpoints of Enterobacteriaceae are 16 μg/mL for tetracycline and gentamicin and 32 μg/mL for ampicillin.
This confirms that the gentamicin sensitivity of Mu14S observed after blood culture^(1) can also be observed on much shorter timescales with FAST. Overnight plating confirms that initial Mu14S counts were 3, 2, 5 and CFU/mL for tetracycline, gentamicin and ampicillin data after 10-fold dilution of the blood/bacteria mixture, corresponding to FAST being performed on whole blood samples containing ˜30, ˜20 and ˜50 CFU/mL. […] Thus, diluting bacterimic blood specimens 1:9 (v:v) directly into saponin-containing growth medium provides a path to ASTs within 8 hours from initial blood draw, with excellent results matching independent (36-44 hrs) MIC determinations from pure, overnight cultures (˜10^8 CFU/mL) that could only be initiated after (˜24 hr) positive blood culture.

[3] = system: E. coli strain ATCC 33456; experiment: MIC of lab strain E. coli
[4] = system: Lab-strain E. coli (ATCC); experiment: FAST with low bacterial counts (500 counts by flow cytometry); settings: each antibiotic at MIC, ¼ MIC and 1/16 MIC, bars beyond the 99% confidence line
Excerpt: FIG. 14. Bactericidal Antibiotic-induced changes for low counts of E. coli. Lab-strain E. coli (ATCC) ASTs performed with 500 counts by flow cytometry with gentamicin (Gen), penicillin G (PenG), and tetracycline (Tet) each at MIC, ¼ MIC and 1/16 MIC. This strain is seen to be sensitive to all three antibiotics, as the bars extend beyond the 99% confidence line.
While both morphology and growth inhibition occur upon exposure to antibiotics near the minimum inhibitory concentration, standard ASTs are based on growth inhibition alone. The presence of bacteria is clearly indicated by the presence of a particular scattering peak in the multidimensional histogram. This is much more sensitive and less affected by background than is shifts in a peak resulting from morphological changes upon antibiotic exposure. […] For even a few hundred counts, the presence of a bacterial population can be readily assessed with flow cytometry, but error bars and statistical distances must be properly determined relative to no-antibiotic controls. When too few counts for triplicate runs exist, control and each antibiotic exposure histograms are treated as probability distributions that are representative of the true mother distribution for each condition. Each histogram is binned (either adaptively with probability binning or using regular bins) and the distribution of data within each bin is determined. […]

[5] = system: E. coli strain ATCC 33456; experiment: Pre-blood culture AST with sheep blood, flow cytometry and PB-sQF
Protocol: (§7) To search for the condition to separate bacteria from the blood cells, sheep blood was used as a substitute for human blood. In order to remove the blood cells that have a concentration that is 10^6 to 10^7 times higher than the bacteria, 100 μL of 10% (w/v) saponin was added to 1 mL of sheep blood that was spiked with either 100 μL of LB or 10^4 CFU/mL E. coli strain ATCC 33456 (final concentration ˜10^3 CFU/mL) and incubated for 15 minutes at room temperature to lyse the blood cells. The same procedure was applied to 12 samples loaded in eppendorf tubes. These samples were then washed with PBS and resuspended in 500 μL L B broth. All 12 samples were added to the 12-well plate loaded with 480 μL of LB broth and/or penicillin g with 2× higher desired concentrations and 20 μL, 45 μM of MH-IR786. The plate was incubated for 5 hours. Each sample was then collected and analyzed by flow cytometry.

100% sheep blood only = experiment: Pre-blood culture AST, 100% sheep blood only samples; settings: no-antibiotic to 1×MIC
Protocol: as §7

[6] = Acinetobacter nosocomialis, read-out: MIC
[7] = Escherichia coli, read-out: MIC
[8] = Escherichia coli, MU890, E. coli Mu890, read-out: MIC
[9] = Klebsiella pneumoniae, read-out: MIC

Structure (SMILES)	MIC (A. nosocomialis M2; [6]) [µg/mL]	MIC (S/I/R) (A. nosocomialis M2)	MIC (A. nosocomialis M2) [µg/mL]	MIC (E. coli Mu14S; [7]) [µg/mL]	MIC (S/I/R) (E. coli Mu14S)	MIC (E. coli Mu14S) [µg/mL]	MIC (S/I/R) (E. coli Mu890; E. coli Mu890)	MIC (E. coli Mu890; [8]) [µg/mL]	MIC (K. pneumoniae Mu55; [9]) [µg/mL]	MIC (S/I/R) (K. pneumoniae Mu55)	MIC (K. pneumoniae Mu55) [µg/mL]	MIC (K. pneumoniae Mu670; [9]) [µg/mL]	MIC (S/I/R) (K. pneumoniae Mu670)	also measured
CC1(C)S[C@@H]2[C@H](NC(=O)[C@H](N)c3ccccc3)C(=O)N2[C@H]1C(=O)O [Ampicillin]	> 1020	(R)	> 1024	> 1020	(R)	> 1024	(R)	> 1020	> 1020	(R)	> 1024	> 1020	(R)	MIC (K. pneumoniae Mu670): > 1024 µg/mL; FAST antibiotic-induced scatter signal change (E. coli strain Mu14S): remained statistically unchanged; FAST antibiotic-induced scatter signal change (E. coli strain Mu890): indistinguishable from those of the no-antibiotic control; PB-sQF FAST susceptibility [1]: resistant; scattered light histograms change [2]: do not significantly change
CN(C)[C@@H]1C(O)=C(C(N)=O)C(=O)[C@@]2(O)C(O)=C3C(=O)c4c(O)cccc4[C@@](C)(O)[C@H]3C[C@@H]12 [Tetracycline]	1 (≈ 2.25 µM)	(S)	1 (≈ 2.25 µM)	> 64	(R)	>64	(S)	1 (≈ 2.25 µM)	> 64	(R)	>64	2 (≈ 4.5 µM)	(S)	MIC (E. coli Mu890; E. coli Mu890): 1 µg/mL (≈ 2.25 µM); MIC (E. coli Mu890; E. coli Mu890, listed as tetracycline): 2 µg/mL (≈ 4.5 µM)
CC1(C)S[C@@H]2[C@H](NC(=O)Cc3ccccc3)C(=O)N2[C@H]1C(=O)O [penicillin g]	–	–	–	–	–	–	–	–	–	–	–	–	–	1×MIC [3]: 32 µg/mL; PB-sQF AST susceptibility at low counts [4]: sensitive; cytometric data, growth inhibition ([5]; 1000 CFU/mL E. coli spiked sheep blood, 1×MIC, 5 hours): clear growth inhibition; PB-sQF distance ([5]; 1000 CFU/mL and 10^5 CFU/mL spiked sheep blood, from 1/16×MIC to 1×MIC): clear increment of distance increases; cytometric data of blood-only samples (100% sheep blood only): remained very similar to each other
